Experiments:
[1] = compared with the conventional reduced coenzyme Q10 Form I crystal; cited from earlier work
[2] = compared with oxidized coenzyme Q10; cited from earlier work
[3] = Reduced coenzyme Q10 concentration dissolved in the liquid phase of the crystallization mixture, by HPLC (Example 11); assay type: physicochemical; conditions: 99.5% ethanol
Procedure: The inside of a 500 mL separable flask (made of borosilicate glass) was replaced with nitrogen, and 40.0 g of reduced coenzyme Q10 and 360 g of 99.5% ethanol were then added thereto (reduced coenzyme Q10 concentration: 10 wt. %). Thereafter, the obtained raw material mixture was warmed to 42° C. while stirring with a stirring blade (power required for stirring: 0.1 kw/m^3) to obtain a homogeneous solution. This solution was cooled to 35° C., and thereafter, 0.4 g (1 wt. %) of reduced coenzyme Q10 crystals comprising reduced coenzyme Q10 Form II crystals were added as seed crystals to the solution.
The mixture obtained after the addition of the seed crystals was kept at 35° C. for 15 hours to precipitate crystals. Thereafter, the mixture was cooled to 25° C. at a constant cooling rate of −2° C./hour over 5 hours, and was then cooled to 10° C. at a constant cooling rate of −10° C./hour over 1.5 hours, to further precipitate crystals. After the temperature had reached 10° C., the mixture was filtered for solid-liquid separation. The obtained crystal was dried under reduced pressure at 35° C. for 10 hours to obtain a reduced coenzyme Q10 Form II crystal (Form II rate: 100%; recovery rate: 97%).
In the present experiment, the liquid phase of the mixture was sampled immediately before addition of the seed crystals (at 0 hour), and then at 3 hours, 6 hours, 9 hours, 12 hours, 15 hours (so far, at 35° C.), 17.5 hours (30° C.), 20 hours (25° C.), 20.5 hours (20° C.), and 21.5 hours (10° C.) after the addition of the seed crystals. The concentration (wt. %) of reduced coenzyme Q10 dissolved in the liquid phase sample was measured according to high performance liquid chromatography.
Conditions for the high performance liquid chromatography, by which the reduced coenzyme Q10 concentration was measured, are shown below.
Column: SYMMETRY C18 (manufactured by Waters); 250 mm (length), 4.6 mm (inner diameter)
Mobile phase: C2H5OH:CH3OH=4:3 (v:v)
Detection wavelength: 210 nm
Retention time of reduced coenzyme Q10: 9.1 min.

SMILES	stability of the crystal form [1]	oral absorbability [2]	Reduced coenzyme Q10 concentration ([3]; crystallization time 0 h (immediately before addition of the seed crystals), 35° C.)	Reduced coenzyme Q10 concentration ([3]; crystallization time 3 h, 35° C.)	Reduced coenzyme Q10 concentration ([3]; crystallization time 6 h, 35° C.)	Reduced coenzyme Q10 concentration ([3]; crystallization time 9 h, 35° C.)	Reduced coenzyme Q10 concentration ([3]; crystallization time 12 h, 35° C.)	Reduced coenzyme Q10 concentration ([3]; crystallization time 15 h, 35° C.)	Reduced coenzyme Q10 concentration ([3]; crystallization time 17.5 h, 30° C.)	Reduced coenzyme Q10 concentration ([3]; crystallization time 20 h, 25° C.)	Reduced coenzyme Q10 concentration ([3]; crystallization time 20.5 h, 20° C.)	Reduced coenzyme Q10 concentration ([3]; crystallization time 21.5 h, 10° C.)
COc1c(O)c(C)c(C/C=C(\C)CC/C=C(\C)CC/C=C(\C)CC/C=C(\C)CC/C=C(\C)CC/C=C(\C)CC/C=C(\C)CC/C=C(\C)CC/C=C(\C)CCC=C(C)C)c(O)c1OC [reduced coenzyme Q10 Form II crystal, reduced coenzyme Q10]	much more stable	–	–	–	–	–	–	–	–	–	–	–
COc1c(O)c(C)c(C/C=C(\C)CC/C=C(\C)CC/C=C(\C)CC/C=C(\C)CC/C=C(\C)CC/C=C(\C)CC/C=C(\C)CC/C=C(\C)CC/C=C(\C)CCC=C(C)C)c(O)c1OC [reduced coenzyme Q10]	–	higher oral absorbability than that of oxidized coenzyme Q10	10.0 wt %	9.9 wt %	9.6 wt %	9.2 wt %	8.5 wt %	7.2 wt %	3.1 wt %	1.5 wt %	0.8 wt %	0.3 wt %

— US11453633B2, “Production method for crystal of reduced coenzyme Q10 having excellent stability” (KANEKA CORPORATION, priority 2018, dated 2022)
